According to patent publication US10969390B2, “Method for evaluating efficacy of chemoradiotherapy against squamous cell carcinoma” (NATIONAL CANCER CENTER, priority 2014, dated 2021):

Experiments:
[1] = test system: SIM2 stably expressing lines (KYSE510-SIM2-27 and -37, TE8-SIM2-2 and -3, T.Tn-SIM2-9 and -23) of esophageal squamous cell carcinoma cell lines; test: anticancer-agent sensitivity test of SIM2-gene stably expressing lines, two-dimensional culturing, viable cell count (trypan blue); assay type: cell-based; conditions: for sensitivities to anticancer agents of SIM2 stably expressing lines in comparison with control-vector introduced lines: two-dimensional culture, 3 days, CDDP 2, 5, 10 μM, 5-FU 10 μM, DTX 1 nM, versus KYSE510-Mock, TE8-Mock, T.Tn-Mock
Procedure: (§1) The SIM2 gene was introduced into TE8 obtained from RIKEN BRC and KYSE510 and T. Tn obtained from JCRB Cell Bank. The resultant was cultured in a medium containing 400 μg/ml of G-418 for approximately 2 weeks. The G418 resistant colonies were isolated and cultured. The SIM2 gene expression was confirmed by an RT-PCR method. Thus, SIM2-gene stably expressing lines were established. Cell lines in which only a GFP expression plasmid vector was introduced were prepared as control cell lines. To extract the total RNAs and evaluate the differentiation-inducing activities of the SIM2-gene stably expressing lines, the SIM2-gene stably expressing lines were each seeded into NanoCulture (registered trademark) Plate and then cultured with a normal medium for 3 days. The total RNA was extracted, and an RT-PCR method was performed. The cDNA was synthesized using SuperScript (registered trademark) III First-Strand Synthesis System for RT-PCR. The diluted cDNA was mixed with AccuPrime (registered trademark) Taq DNA Polymerase System (Invitrogen), primers, and nuclease-free water, and amplified using GeneAmp (registered trademark) PCR System 9700 (Applied Biosystems Inc.). The resultant was quantified and compared by agarose gel electrophoresis.
To evaluate the sensitivities of the SIM2-gene stably expressing lines to cisplatin (CDDP), 5-fluorouracil (5-FU), and docetaxel (DTX), an anticancer-agent sensitivity test was conducted. The SIM2-gene stably expressing lines were each seeded into a 6-well plate, cultured with a normal medium for 1 day, and then cultured with a normal medium or a medium supplemented with CDDP (2 μM, 5 μM, 10 μM), 5-FU (10 μM), or DTX (1 nM) for 3 days. After the chemical treatment was completed, the cells were collected using 0.25% trypsin/EDTA and stained with trypan blue. After that, the number of viable cells was counted.

[2] = test system: SIM2 stably expressing lines (T.Tn-SIM2-9 and -23); test: cisplatin long-term sensitivity test of SIM2-gene stably expressing lines, three-dimensional culturing, viable cell count; assay type: cell-based; conditions: 14 days, CDDP 5×10^−6 M, T.Tn-SIM2-9 and -23 versus T.Tn-Mock
Procedure: as §1, with “The diluted cDNA was mixed with AccuPrime (registered trademark) Taq DNA Polymerase System (Invitrogen), primers, and nuclease-free water, and amplified using GeneAmp (registered trademark) PCR System 9700 (Applied Biosystems Inc.).” left out
To evaluate the sensitivities of the SIM2-gene stably expressing lines to CDDP long-term administration, an anticancer-agent sensitivity test was conducted employing three-dimensional culturing. […] After that, the number of viable cells was counted.

| Compound | sensitivities to anticancer agents of SIM2 stably expressing lines in comparison with control-vector introduced lines [1] | CDDP effect in 3 days (two-dimensional culturing) ([1]; concentration near IC50, 3 days, FIG. 6) | sensitivities to CDDP of SIM2 stably expressing lines in comparison with control-vector introduced line [2] |
| --- | --- | --- | --- |
| O=c1[nH]cc(F)c(=O)[nH]1 [5-fluorouracil] | increased |  |  |
| N.N.[Cl][Pt][Cl] [cisplatin] | increased | significant but small | remarkably increased |
| CC(=O)O[C@@]12CO[C@@H]1C[C@H](O)[C@@]1(C)C(=O)[C@H](O)C3=C(C)[C@@H](OC(=O)[C@H](O)[C@@H](NC(=O)OC(C)(C)C)c4ccccc4)C[C@@](O)([C@@H](OC(=O)c4ccccc4)[C@H]21)C3(C)C [docetaxel] | increased |  |  |
